The target of assay [1] is T1, human LXRα (Homo sapiens, UniProt Q13133).
T1 construct: biotin (biotinylated); made in house; host or cells: E. coli (crude extract)
T1 sequence (Q13133 1-447): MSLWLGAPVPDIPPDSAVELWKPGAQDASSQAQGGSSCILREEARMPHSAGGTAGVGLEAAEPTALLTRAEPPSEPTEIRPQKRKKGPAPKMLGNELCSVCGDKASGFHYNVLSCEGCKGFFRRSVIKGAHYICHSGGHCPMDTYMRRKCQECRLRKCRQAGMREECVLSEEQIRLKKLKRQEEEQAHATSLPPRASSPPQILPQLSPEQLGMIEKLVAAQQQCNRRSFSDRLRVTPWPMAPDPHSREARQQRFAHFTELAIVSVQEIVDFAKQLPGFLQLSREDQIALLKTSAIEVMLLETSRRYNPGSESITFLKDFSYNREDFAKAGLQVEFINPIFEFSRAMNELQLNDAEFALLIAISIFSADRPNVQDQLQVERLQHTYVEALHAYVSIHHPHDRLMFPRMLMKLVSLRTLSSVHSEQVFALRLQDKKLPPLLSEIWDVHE
Put plainly: Ligand-binding test procedure for human LXRα (3H T0901317 tracer, flash plates). The conditions noted are these: biotinylated hLXRα from E. coli extract; tracer 3H T0901317. The essentials: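 Biotinylated hLXRα from E. coli extract (50 mM Tris) captured on streptavidin flash plates overnight at 4 °C. Compound dilution series mixed with 5 nM [3H]T0901317 (concentration before mixing), incubated overnight at 4 °C; wells aspirated, washed and remaining radioactivity counted.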

For assay [2], the target named is T2, human LXRβ (Homo sapiens, UniProt P55055).
T2 construct: biotin (biotinylated); made in house; host or cells: E. coli (crude extract)
T2 sequence (P55055 1-460): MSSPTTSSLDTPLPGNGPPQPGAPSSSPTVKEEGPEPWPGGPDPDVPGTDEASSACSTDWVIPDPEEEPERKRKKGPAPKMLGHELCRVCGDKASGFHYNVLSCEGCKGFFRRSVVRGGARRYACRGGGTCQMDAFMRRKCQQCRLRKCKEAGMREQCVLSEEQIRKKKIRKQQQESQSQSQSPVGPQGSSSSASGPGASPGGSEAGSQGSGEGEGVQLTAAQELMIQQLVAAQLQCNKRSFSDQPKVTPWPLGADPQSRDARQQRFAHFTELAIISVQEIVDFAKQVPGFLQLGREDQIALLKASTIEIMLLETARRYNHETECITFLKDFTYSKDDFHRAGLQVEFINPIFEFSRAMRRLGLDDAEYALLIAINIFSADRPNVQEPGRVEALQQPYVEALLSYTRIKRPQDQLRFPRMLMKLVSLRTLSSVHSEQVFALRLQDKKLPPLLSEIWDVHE
Put plainly: Ligand-binding test procedure for human LXRβ (3H T0901317 tracer, flash plates). The conditions noted are these: biotinylated hLXRβ from E. coli extract; tracer 3H T0901317. In outline: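 Biotinylated hLXRβ from E. coli extract was captured on streptavidin flash plates (Bmax ~4000 cpm) at 4 °C overnight. Test ligand dilutions were mixed with 5 nM [3H]T0901317 tracer solution and incubated on the plates overnight at 4 °C; bound radioactivity was counted after washing.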

For assay [3], the system named is ABCA1 gene. Kind of assay: Quantitative analysis of ABCA1 gene regulation in THP-1 cells (real-time PCR). It is filed as cell-based, human. To be noted: for EC50: read-out: EC50 ABCA1; for Emax: LXR agonist reference at 1.0 uM as positive control, read-out: Agonism ABCA1. The protocol: III. Quantitative Analysis of ABCA1 Gene Regulation in THP-1 Cells. The compounds of formula (I) effect on the regulation of the ABCA1 gene was evaluated using the following procedure. Materials and Methods Cell culture: The THP-1 monocytic cell line (ATCC #TIB-202) was obtained from American Type Culture Collection (Manassas, Va.) and cultured in RPMI 1640 medium (Gibco, Carlsbad, Calif.) containing 10% FBS, 2 mM L-glutamine, and 55 uM beta-Mercaptoethanol (BME). […] Louis, Mo.) for three days to induce differentiation into adherent macrophages. Differentiated THP-1 cells were treated with test compounds or ligands dissolved in DMSO (Sigma, D-8779) in culture medium lacking phorbal ester. […] Dose response effects were measured in duplicate, in the range of 0.001 to 30 micromolar concentrations and treated cells were incubated for an additional 18 hrs prior to RNA isolation. Unstimulated cells treated with vehicle were included as negative controls on each plate. […] L., J. Med. Chem. (2000), 45:1963-1966.). Results of antagonist analysis are expressed as % antagonism and IC50 (in μM). RNA isolation and quantitation: Total cellular RNA was isolated from treated cells cultured in 96-well plates using PrepStation 6100 (Applied Biosystems, Foster City, Calif.), according to the manufacturer's recommendations. RNA was resuspended in ribonuclease-free water and stored at -70° C. prior to analysis. RNA concentrations were quantitated with RiboGreen test procedure, #R-11490 (Molecular Probes, Eugene, Oreg.). Gene expression analysis: Gene-specific mRNA quantitation was performed by real-time PCR with the Perkin Elmer Corp. chemistry on an ABI Prism 7700 Sequence detection system (Applied Biosystems, Foster City, Calif.) according to the manufacturer's instructions. Samples (50-100 ng) of total RNA were assayed in duplicate or triplicate in 50 ul reactions using one-step RT-PCR and the standard curve method to estimate specific mRNA concentrations. Sequences of gene-specific primer and probe sets were designed with Primer Express Software (Applied Biosystems, Foster City, Calif.). […] Relative levels of ABCA1 mRNA are normalized using GAPDH mRNA or 18S rRNA probe/primer sets purchased commercially (Applied Biosystems, Foster City, Calif.). Statistics: Mean, standard deviation and statistical significance of duplicate evaluations of RNA samples were assessed using ANOVA, one-way analysis of variance using SAS analysis. Reagents: -GAPDH Probe and Primers-Taqman GAPDH Control Reagents 402869 or 4310884E 18S Ribosomal RNA-Taqman 18S Control Reagents 4308329 […] Qiagen Quantitect probe RT-PCR 204443.

The mark [4] stands for this setting: Gene regulation by LXR (Human), differentiated THP-1 cells, 18 hrs, ABCA1 mRNA.
The mark [5] stands for this setting: Gene regulation by LXR (Human), differentiated THP-1 cells, 18 hrs.

Like-named read-outs stand apart in the source and are kept apart here.

The text below walks through data of patent US20110112135A1, “Imidazo [1,2-A] Pyridine Compounds” (priority 2007, published 2011).

On to `CCc1nc2c(Cl)cccn2c1-c1cccc(Oc2cccc(S(C)(=O)=O)c2)c1` [Example 63, 8-chloro-2-ethyl-3-{3-[3-(methylsulfonyl)phenoxy]phenyl}imidazo[1,2-a]pyridine], for which the IC50 turned out to be 642 nM in assay [1] and 17.3 nM in assay [2]. Besides, the EC50 in assay [3] (setting [4]) worked out at 304 nM. Further, the Emax in assay [3] (setting [5]) turned out to be 96%.
Consider `CS(=O)(=O)c1cccc(Oc2cccc(-c3c(CN4CCCCC4)nc4c(C(F)(F)F)cccn34)c2)c1` [Example 131, 3-{3-[3-(methylsulfonyl)phenoxy]phenyl}-2-(piperidin-1-ylmethyl)-8-(trifluoromethyl)imidazo[1,2-a]pyridine], for which, in assay [3] (setting [5]), the Emax stood at 100%. Besides, in assay [3] (Homo sapiens, THP-1, 18 h), the concentration for a half-maximal effect (EC50) stood at 43 nM.
On the same counts, the results for `CNS(=O)(=O)c1cccc(Oc2cccc(-c3c(C(C)C)nc4c(Cl)cccn34)c2)c1` [Example 49, 3-[3-(8-chloro-2-isopropylimidazo[1,2-a]pyridin-3-yl)phenoxy]-N-methylbenzenesulfonamide] are 101% and 794 nM.
As for `CCc1nc2c(C(F)(F)F)cccn2c1-c1cccc(Oc2cccc(S(=O)(=O)CCCO)c2)c1` [Example 21], the IC50 was 520 nM in assay [1] and 44 nM in assay [2]. Further, the EC50 in assay [3] (setting [4]) was determined as 771 nM. Besides, the Emax in assay [3] (setting [5]) was determined as 111%.
In the case of `CC(C)c1nc2c(Cl)cccn2c1-c1cccc(Oc2cccc(S(C)(=O)=O)c2)c1` [Example 66, 8-chloro-2-isopropyl-3-{3-[3-(methylsulfonyl)phenoxy]phenyl}imidazo[1,2-a]pyridine], the Emax in assay [3] (setting [5]) stood at 74%. In addition, the EC50 in assay [3] (Homo sapiens, THP-1, 18 h) worked out at 625 nM.
Consider `CC(C)c1nc2c(C(F)(F)F)cccn2c1-c1cccc(Oc2cccc(S(=O)(=O)CCCO)c2)c1` [Example 61, 3-[(3-{3-[2-isopropyl-8-(trifluoromethyl)imidazo[1,2-a]pyridin-3-yl]phenoxy}phenyl)sulfonyl]propan-1-ol], for which the IC50 in assay [1] was 456 nM; in assay [2], 19.8 nM. Besides, in assay [3] (setting [4]), the EC50 came to 1640 nM. For the same molecule, the Emax in assay [3] (setting [5]) was 60%.
On the same counts, the results for `CCc1nc2c(C#N)cccn2c1-c1cccc(Oc2cccc(S(=O)(=O)C(C)C)c2)c1` [Example 71, 2-ethyl-3-{3-[3-(isopropylsulfonyl)phenoxy]phenyl}imidazo[1,2-a]pyridine-8-carbonitrile] are 2430 nM, 37.2 nM, 1940 nM and 96%.
On the same counts, the results for `CC(C)c1nc2c(C(F)(F)F)cccn2c1-c1ccc(-c2ccc(S(=O)(=O)C(C)C)cc2)cc1` [Example 91, 2-isopropyl-3-(4′-(isopropylsulfonyl)biphenyl-4-yl)-8-(trifluoromethyl)imidazo[1,2-a]pyridine] are above 1000 nM, above 1000 nM, 2780 nM and 33%.
On the same counts, the results for `CC(C)c1nc2c(C#N)cccn2c1-c1cc(Oc2cccc(S(C)(=O)=O)c2)ccc1Cl` [Example 82, 3-{2-chloro-5-[3-(methylsulfonyl)phenoxy]phenyl}-2-isopropylimidazo[1,2-a]pyridine-8-carbonitrile] are 309 nM, 11.5 nM, 290 nM and 70%.
As to `CCc1nc2c(Cl)cccn2c1-c1cccc(Oc2cccc(S(=O)(=O)NC)c2)c1` [Example 48, 3-[3-(8-chloro-2-ethylimidazo[1,2-a]pyridin-3-yl)phenoxy]-N-methylbenzenesulfonamide], the IC50 in assay [1] came out at 411 nM; in assay [2], 23 nM. In addition, in assay [3] (setting [4]), the EC50 is 925 nM. Also, in assay [3] (setting [5]), the Emax amounted to 94%.
In the case of `CCc1nc2c(C(F)(F)F)cccn2c1-c1cccc(Cc2cccc(S(C)(=O)=O)c2)c1` [Example 100, 2-ethyl-3-{3-[3-(methylsulfonyl)benzyl]phenyl}-8-(trifluoromethyl)imidazo[1,2-a]pyridine], the Emax in assay [3] (setting [5]) is 82%. Moreover, the EC50 in assay [3] (Homo sapiens, THP-1, 18 h) was found to be 460 nM.
As for `CS(=O)(=O)c1cccc(Oc2ccc(-c3c(-c4ccsc4)nc4c(C(F)(F)F)cccn34)cc2)c1` [Example 127, 3-{4-[3-(methylsulfonyl)phenoxy]phenyl}-2-thiophen-3-yl-8-(trifluoromethyl)imidazo[1,2-a]pyridine], in assay [2], the IC50 is 113 nM. Also, the EC50 in assay [3] (setting [4]) is 480 nM. Besides, the Emax in assay [3] (setting [5]) was found to be 25%.
`CC(C)c1nc2c(C#N)cccn2c1-c1cccc(Oc2cccc(S(C)(=O)=O)c2)c1` [Example 72, 2-isopropyl-3-{3-[3-(methylsulfonyl)phenoxy]phenyl}imidazo[1,2-a]pyridine-8-carbonitrile]: the Emax in assay [3] (setting [5]) amounted to 79%. The EC50 in assay [3] (Homo sapiens, THP-1, 18 h) was 510 nM.
On the same counts, the results for `CCc1nc2c(C(F)(F)F)cccn2c1-c1cccc(Oc2cccc(S(C)(=O)=O)c2)c1` [Example 17, 2-ethyl-3-(3-(3-(methylsulfonyl)phenoxy)phenyl)-8-(trifluoromethyl)imidazo[1,2-a]pyridine] are 91% and 99 nM.
As to `CC(C)c1nc2c(C(F)(F)F)cccn2c1-c1cccc(OCc2cccc(S(C)(=O)=O)c2)c1` [Example 52, 2-isopropyl-3-(3-{[3-(methylsulfonyl)benzyl]oxy}phenyl)-8-(trifluoromethyl)imidazo[1,2-a]pyridine], in assay [3] (setting [5]), the Emax amounted to 86%. Also, in assay [3] (Homo sapiens, THP-1, 18 h), the EC50 worked out at 2380 nM.
On the same counts, the results for `CCS(=O)(=O)c1cccc(Oc2cccc(-c3c(C)nc4c(C(F)(F)F)cccn34)c2)c1` [Example 10, 2-methyl-3-(3-(3-(ethylsulfonyl)phenoxy)phenyl)-8-(trifluoromethyl)imidazo[1,2-a]pyridine] are 91% and 552 nM.
On the same counts, the results for `CC(C)c1nc2c(Cl)cccn2c1-c1cccc(Oc2cccc(S(N)(=O)=O)c2)c1` [Example 98, 3-[3-(8-chloro-2-isopropylimidazo[1,2-a]pyridin-3-yl)phenoxy]benzenesulfonamide] are 66% and 1370 nM.
On the same counts, the results for `CC(C)(C)c1nc2c(C(F)(F)F)cccn2c1-c1cccc(Oc2cccc(S(C)(=O)=O)c2)c1` [Example 75, 2-tert-butyl-3-{3-[3-(methylsulfonyl)phenoxy]phenyl}-8-(trifluoromethyl)imidazo[1,2-a]pyridine] are 91% and 395 nM.

The IC50 is the concentration needed to halve the response being measured. Usually EC50 stands for the concentration at which the effect is half-maximal.
